According to patent US9504729B2, “Antiangiogenic small molecules and methods of use” (The United States of America, as represented by the …, priority 2009, dated 2016):

System: angiogenesis genes in dermal microvascular endothelial cells
Experiment: Real time RT-PCR of angiogenesis gene expression during endothelial tube formation
Type: cell-based
Conditions: 1 μM SM, 24 hours

Compound: COc1ccc(CC2C(=O)NC(C)C(=O)N(C)C3Cc4ccc(cc4)Oc4cc(ccc4O)CC(C(=O)NC(C)C(=O)NC(C)C(=O)N2C)N(C)C3=O)cc1 (stereo not drawn) [compound 259969]
- Log2 fold-change of gene expression: Kifc1: −4.8
- Log2 fold-change of gene expression: LAMAS5: −0.8
- Log2 fold-change of gene expression: LECT1: −8.0
- Log2 fold-change of gene expression: LEP: 0.8
- Log2 fold-change of gene expression: Lasts2: 1.5
- Log2 fold-change of gene expression: Lrrk1: 0.3
- Log2 fold-change of gene expression: MDK: −1.0
- Log2 fold-change of gene expression: MMP2: −0.1
- Log2 fold-change of gene expression: MMP9: 4.3
- Log2 fold-change of gene expression: MMP11: 0.1
- Log2 fold-change of gene expression: MRC2: −0.6
- Log2 fold-change of gene expression: Mmm2: −7.5
- Log2 fold-change of gene expression: Myo1b: −3.0
- Log2 fold-change of gene expression: NID1: −3.6
- Log2 fold-change of gene expression: NM023516: 0.9
- Log2 fold-change of gene expression: NRP1: −2.6
- Log2 fold-change of gene expression: NRP2: −3.5
- Log2 fold-change of gene expression: Notch4: −0.3
- Log2 fold-change of gene expression: Npr3: 2.7
- Log2 fold-change of gene expression: PALD: −1.3
- Log2 fold-change of gene expression: PDCD2: −1.7
- Log2 fold-change of gene expression: PDGFA: 1.1
- Log2 fold-change of gene expression: PECAM1: −3.0
- Log2 fold-change of gene expression: PGF: −7.2
- Log2 fold-change of gene expression: PLAU: 3.8
- Log2 fold-change of gene expression: PLG: −1.0
- Log2 fold-change of gene expression: PNMT: −0.1
- Log2 fold-change of gene expression: PROK2: 2.2
- Log2 fold-change of gene expression: PTGS1: 2.9
- Log2 fold-change of gene expression: PTPRCAP: 0.9
- Log2 fold-change of gene expression: Pltp: 1.4
- Log2 fold-change of gene expression: Ptprb: −0.1
- Log2 fold-change of gene expression: Ptprm: 1.7
- Log2 fold-change of gene expression: RAMP2: −5.9
- Log2 fold-change of gene expression: RASD2: 0.5
- Log2 fold-change of gene expression: Rasip1: −1.1
- Log2 fold-change of gene expression: S1PR1: −0.3
- Log2 fold-change of gene expression: SERPINF1: 6.5
- Log2 fold-change of gene expression: SPHK1: 3.2
- Log2 fold-change of gene expression: STAB1: 0.5
- Log2 fold-change of gene expression: Sdc4: 4.0
- Log2 fold-change of gene expression: Sdpr: 0.9
- Log2 fold-change of gene expression: Slc43a3: 0.2
- Log2 fold-change of gene expression: Slco2a1: −2.4
- Log2 fold-change of gene expression: TEK: 1.6
- Log2 fold-change of gene expression: TGFA: 8.7
- Log2 fold-change of gene expression: TGFB1: 0.3
- Log2 fold-change of gene expression: TGFB2: 1.3
- Log2 fold-change of gene expression: TGFBR1: 1.1
- Log2 fold-change of gene expression: THBS1: −0.1
- Log2 fold-change of gene expression: THBS2: 2.6
- Log2 fold-change of gene expression: THY1: −3.0
- Log2 fold-change of gene expression: TIMP1: 2.5
- Log2 fold-change of gene expression: TIMP2: 0.0
- Log2 fold-change of gene expression: TIMP3: −0.6
- Log2 fold-change of gene expression: TNF: 9.3
- Log2 fold-change of gene expression: TNS1: −0.3
- Log2 fold-change of gene expression: TNS3: −8.0
- Log2 fold-change of gene expression: TRA2B: 0.6
- Log2 fold-change of gene expression: TYMP: 0.1
- Log2 fold-change of gene expression: VEGFA: 5.7
- Log2 fold-change of gene expression: VEGFC: 1.9
- Log2 fold-change of gene expression: VGLL4: 1.3
- Log2 fold-change of gene expression: Vwf: −5.4
- Log2 fold-change of gene expression: copa: −2.1
- Log2 fold-change of gene expression: itbp4: −1.7
- Log2 fold-change of gene expression: ralb: 0.7
- Log2 fold-change of gene expression: stard9: 0.0
- Log2 fold-change of gene expression: B2M (1st listing (r49)): 1.2
- Log2 fold-change of gene expression: HPRT1 (1st listing (r50)): 0.6
- Log2 fold-change of gene expression: RPL13A (1st listing (r51)): 1.2
- Log2 fold-change of gene expression: GADPH (1st listing (r52)): −1.0
- Log2 fold-change of gene expression: ACTB (1st listing (r53)): −2.5
- Log2 fold-change of gene expression: PLXDC1 (1st listing (r74)): 2.3
- Log2 fold-change of gene expression: TNFAIP2 (1st listing (r91)): 4.6
- Log2 fold-change of gene expression: Robo4 (1st listing (r95)): −4.1
- Log2 fold-change of gene expression: 151516 (1st listing (r134)): 0.5
- Log2 fold-change of gene expression: TNFAIP2 (2nd listing (r92)): 4.7
- Log2 fold-change of gene expression: B2M (2nd listing (r97)): 1.5
- Log2 fold-change of gene expression: HPRT1 (2nd listing (r98)): −0.5
- Log2 fold-change of gene expression: RPL13A (2nd listing (r99)): 0.7
- Log2 fold-change of gene expression: GADPH (2nd listing (r100)): 0.0
- Log2 fold-change of gene expression: ACTB (2nd listing (r101)): −2.2
- Log2 fold-change of gene expression: PLXDC1 (2nd listing (r104)): −2.4
- Log2 fold-change of gene expression: 151516 (2nd listing (r139)): 0.5
- Log2 fold-change of gene expression: Robo4 (2nd listing (r188)): 0.3
- Log2 fold-change of gene expression: B2M (3rd listing (r145)): 0.5
- Log2 fold-change of gene expression: HPRT1 (3rd listing (r146)): 0.8
- Log2 fold-change of gene expression: RPL13A (3rd listing (r147)): 0.0
- Log2 fold-change of gene expression: GADPH (3rd listing (r148)): −1.7
- Log2 fold-change of gene expression: ACTB (3rd listing (r149)): −2.2
- Log2 fold-change of gene expression: B2M (4th listing (r193)): 0.8
- Log2 fold-change of gene expression: HPRT1 (4th listing (r194)): 0.5
- Log2 fold-change of gene expression: RPL13A (4th listing (r195)): 0.0
- Log2 fold-change of gene expression: GADPH (4th listing (r196)): −2.1
- Log2 fold-change of gene expression: ACTB (4th listing (r197)): 0.4
